From US20150105252A1, “SUBSTITUTED PYRAZOLES AS HERBICIDES” (E I DU PONT DE NEMOURS AND COMPANY, priority 2013, published 2015)

Experiments:
barnyardgrass [1] = assay: Test A preemergence; format: in vivo, Echinochloa crus-galli
Summary of the method: (§1)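 Pre- and postemergence greenhouse test; loam+sand; cpd in non-phytotox. solvent/surfactant; post at 1–2 leaf, 2–10 cm; visual score ~10 d, 0 = none, 100 = complete control.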

crabgrass, large [2] = assay: Test A preemergence; format: in vivo, Digitaria sanguinalis
Summary of the method: as §1

foxtail, giant [3] = assay: Test A preemergence; format: in vivo, Setaria faberii
Summary of the method: as §1

morningglory [4] = assay: Test A preemergence; format: in vivo, Ipomoea spp.
Summary of the method: as §1

pigweed [5] = assay: Test A preemergence; format: in vivo, Amaranthus retroflexus
Summary of the method: as §1

velvetleaf [6] = assay: Test A preemergence; format: in vivo, Abutilon theophrasti
Summary of the method: as §1

wheat [7] = assay: Test A preemergence; format: in vivo, Triticum aestivum
Summary of the method: as §1

corn [8] = assay: Test A preemergence; format: in vivo, Zea mays
Summary of the method: as §1

barnyardgrass [9] = assay: Test A postemergence; format: in vivo, Echinochloa crus-galli
Summary of the method: as §1

crabgrass, large [10] = assay: Test A postemergence; format: in vivo, Digitaria sanguinalis
Summary of the method: as §1

foxtail, giant [11] = assay: Test A postemergence; format: in vivo, Setaria faberii
Summary of the method: as §1

morningglory [12] = assay: Test A postemergence; format: in vivo, Ipomoea spp.
Summary of the method: as §1

pigweed [13] = assay: Test A postemergence; format: in vivo, Amaranthus retroflexus
Summary of the method: as §1

velvetleaf [14] = assay: Test A postemergence; format: in vivo, Abutilon theophrasti
Summary of the method: as §1

wheat [15] = assay: Test A postemergence; format: in vivo, Triticum aestivum
Summary of the method: as §1

corn [16] = assay: Test A postemergence; format: in vivo, Zea mays
Summary of the method: as §1

rice [17] = assay: Test C flooded paddy test; format: in vivo, Oryza sativa; conditions: Flood
From the text: (§2) At time of treatment, test pots were flooded to 3 cm above the soil surface, treated by application of test compounds directly to the paddy water, and then maintained at that water depth for the duration of the test. Treated plants and controls were maintained in a greenhouse for 13 to 15 days, after which time all species were compared to controls and visually evaluated. […] A dash (-) response means no test result.

sedge, umbrella [18] = assay: Test C flooded paddy test; format: in vivo, Cyperus difformis; conditions: Flood
From the text: as §2

barnyardgrass [19] = assay: Test C flooded paddy test; format: in vivo, Echinochloa crus-galli; conditions: Flood
From the text: as §2

rice [20] = assay: Test B flood; format: in vivo, Oryza sativa; conditions: 250 g ai/ha, visual rating on 0 to 100 scale (0 no effect, 100 complete control), 13 to 15 days
Summary of the method: (§3)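 Plants were grown to the 2-leaf stage, then pots were flooded to 3 cm above the soil and compounds were applied directly into the paddy water. Water depth was held for the whole test; after 13 to 15 days in a greenhouse, injury was visually rated against untreated controls (0 = no effect, 100 = complete control).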

sedge, umbrella [21] = assay: Test B flood; format: in vivo, Cyperus difformis; conditions: 250 g ai/ha, visual rating on 0 to 100 scale (0 no effect, 100 complete control), 13 to 15 days
Summary of the method: as §3

ducksalad = assay: Test B flood; format: in vivo, Heteranthera limosa; conditions: 250 g ai/ha, visual rating on 0 to 100 scale (0 no effect, 100 complete control), 13 to 15 days
Summary of the method: as §3

barnyardgrass [22] = assay: Test B flood; format: in vivo, Echinochloa crus-galli; conditions: 250 g ai/ha, visual rating on 0 to 100 scale (0 no effect, 100 complete control), 13 to 15 days
Summary of the method: as §3

[23] = Preemergence, 1000 g ai/ha, 0 to 100 scale, 0 no effect, 100 complete control
[24] = Postemergence, 1000 g ai/ha, visual rating after approx. 10 days, 0 to 100 scale (0 no effect, 100 complete control)
[25] = 31 g ai/ha, scale 0 to 100 (0 no effect, 100 complete control)
[26] = 62 g ai/ha, scale 0 to 100 (0 no effect, 100 complete control)
[27] = preemergence, 125 g ai/ha, visual injury approx. 10 days after treatment
[28] = preemergence, 500 g ai/ha, visual injury after approx. 10 days, 0 to 100 scale (0 no effect, 100 complete control)
[29] = Postemergence, 500 g ai/ha, 0 to 100 scale (0 no effect, 100 complete control)
[30] = postemergence, 125 g ai/ha, about 10 days, visual rating on 0 to 100 scale (0 no effect, 100 complete control)
[31] = preemergence, 125 g ai/ha, visual injury, 0 to 100 scale, approx. 10 days
[32] = Postemergence, 500 g ai/ha, visual rating after approx. 10 days, 0 to 100 scale (0 no effect, 100 complete control)

## CCCc1cc(C(=O)NCC(F)(F)F)nn1Cc1cccc(C(F)(F)F)c1 [Compound 31]
Barnyardgrass [1]; [23]
  Barnyardgrass plant response rating: 50
crabgrass, large [2]; [23]
  Crabgrass, Large plant response rating: 100
foxtail, giant [3]; [23]
  Foxtail, Giant plant response rating: 100
Morningglory [4]; [23]
  Morningglory plant response rating: 40
Pigweed [5]; [23]
  Pigweed plant response rating: 90
Velvetleaf [6]; [23]
  Velvetleaf plant response rating: 50
Wheat [7]; [23]
  Wheat plant response rating: 10
Corn [8]; [23]
  Corn plant response rating: 10
Barnyardgrass [9]; [24]
  Barnyardgrass plant response rating: 60
crabgrass, large [10]; [24]
  Crabgrass, Large plant response rating: 60
foxtail, giant [11]; [24]
  Foxtail, Giant plant response rating: 70
Morningglory [12]; [24]
  Morningglory plant response rating: 100
Pigweed [13]; [24]
  Pigweed plant response rating: 100
Velvetleaf [14]; [24]
  Velvetleaf plant response rating: 100
Wheat [15]; [24]
  Wheat plant response rating: 30
Corn [16]; [24]
  Corn plant response rating: 20
Rice [17]; [25]
  Plant response rating, Rice: 0
Rice [17]; [26]
  Plant response rating, Rice: 0
Rice [17]; 125 g ai/ha, scale 0 to 100
  Plant response rating, Rice: 0
Rice [17]; 250 g ai/ha, scale 0 to 100
  Plant response rating, Rice: 15
sedge, umbrella [18]; [25]
  Plant response rating, Sedge, Umbrella: 30
sedge, umbrella [18]; [26]
  Plant response rating, Sedge, Umbrella: 70
sedge, umbrella [18]; 125 g ai/ha, scale 0 to 100
  Plant response rating, Sedge, Umbrella: 85
sedge, umbrella [18]; 250 g ai/ha, scale 0 to 100
  Plant response rating, Sedge, Umbrella: 85
Barnyardgrass [19]; [25]
  Plant response rating, Barnyardgrass: 0
Barnyardgrass [19]; [26]
  Plant response rating, Barnyardgrass: 0
Barnyardgrass [19]; 125 g ai/ha, scale 0 to 100
  Plant response rating, Barnyardgrass: 0
Barnyardgrass [19]; 250 g ai/ha, scale 0 to 100
  Plant response rating, Barnyardgrass: 20

## O=C(NCC(F)(F)F)c1cc(I)n(Cc2cccc(C(F)(F)F)c2)n1 [Compound 181]
Barnyardgrass [1]; [27]
  Barnyardgrass plant response rating (0 to 100 scale, 0 is no effect, 100 is complete control): 0
Barnyardgrass [1]; [28]
  Barnyardgrass plant response rating: 10
crabgrass, large [2]; [27]
  Crabgrass, Large plant response rating (0 to 100 scale): 10
crabgrass, large [2]; [28]
  Crabgrass, Large plant response rating: 60
foxtail, giant [3]; [27]
  Foxtail, Giant plant response rating (0 to 100 scale): 0
foxtail, giant [3]; [28]
  Foxtail, Giant plant response rating: 20
Morningglory [4]; [27]
  Morningglory plant response rating (0 to 100 scale): 0
Morningglory [4]; [28]
  Morningglory plant response rating: 0
Pigweed [5]; [27]
  Pigweed plant response rating (0 to 100 scale): 10
Pigweed [5]; [28]
  Pigweed plant response rating: 50
Velvetleaf [6]; [27]
  Velvetleaf plant response rating (0 to 100 scale): 0
Velvetleaf [6]; [28]
  Velvetleaf plant response rating: 0
Wheat [7]; [27]
  Wheat plant response rating (0 to 100 scale): 0
Wheat [7]; [28]
  Wheat plant response rating: 0
Corn [8]; [27]
  Corn plant response rating (0 to 100 scale): 0
Corn [8]; [28]
  Corn plant response rating: 0
Barnyardgrass [9]; [29]
  Barnyardgrass plant response rating: 10
Barnyardgrass [9]; [30]
  Barnyardgrass plant response rating: 10
crabgrass, large [10]; [29]
  Crabgrass, Large plant response rating: 10
crabgrass, large [10]; [30]
  Crabgrass, Large plant response rating: 10
foxtail, giant [11]; [29]
  Foxtail, Giant plant response rating: 10
foxtail, giant [11]; [30]
  Foxtail, Giant plant response rating: 0
Morningglory [12]; [29]
  Morningglory plant response rating: 80
Pigweed [13]; [29]
  Pigweed plant response rating: 100
Velvetleaf [14]; [29]
  Velvetleaf plant response rating: 20
Wheat [15]; [29]
  Wheat plant response rating: 0
Corn [16]; [29]
  Corn plant response rating: 20
Corn [16]; [30]
  Corn plant response rating: 0
Rice [20]
  Plant response rating, Rice: 20
sedge, umbrella [21]
  Plant response rating, Sedge, Umbrella: 40
ducksalad
  Plant response rating, Ducksalad: 0
Barnyardgrass [22]
  Plant response rating, Barnyardgrass: 0

## CCONC(=O)c1cc(CC)n(Cc2cc(C(F)(F)F)nn2CC)n1 [Compound 121]
Barnyardgrass [1]; [31]
  Barnyardgrass plant response rating: 70
Barnyardgrass [1]; [28]
  Barnyardgrass plant response rating: 100
crabgrass, large [2]; [31]
  Crabgrass, Large plant response rating: 90
crabgrass, large [2]; [28]
  Crabgrass, Large plant response rating: 100
foxtail, giant [3]; [31]
  Foxtail, Giant plant response rating: 60
foxtail, giant [3]; [28]
  Foxtail, Giant plant response rating: 80
Morningglory [4]; [31]
  Morningglory plant response rating: 100
Morningglory [4]; [28]
  Morningglory plant response rating: 100
Pigweed [5]; [31]
  Pigweed plant response rating: 100
Pigweed [5]; [28]
  Pigweed plant response rating: 100
Velvetleaf [6]; [31]
  Velvetleaf plant response rating: 20
Velvetleaf [6]; [28]
  Velvetleaf plant response rating: 100
Wheat [7]; [31]
  Wheat plant response rating: 10
Wheat [7]; [28]
  Wheat plant response rating: 80
Corn [8]; [31]
  Corn plant response rating: 30
Corn [8]; [28]
  Corn plant response rating: 90
Barnyardgrass [9]; [29]
  Barnyardgrass plant response rating: 90
Barnyardgrass [9]; [30]
  Barnyardgrass plant response rating: 90
crabgrass, large [10]; [29]
  Crabgrass, Large plant response rating: 90
crabgrass, large [10]; [30]
  Crabgrass, Large plant response rating: 70
foxtail, giant [11]; [29]
  Foxtail, Giant plant response rating: 80
foxtail, giant [11]; [30]
  Foxtail, Giant plant response rating: 50
Morningglory [12]; [29]
  Morningglory plant response rating: 100
Morningglory [12]; [30]
  Morningglory plant response rating: 90
Pigweed [13]; [29]
  Pigweed plant response rating: 100
Pigweed [13]; [30]
  Pigweed plant response rating: 90
Velvetleaf [14]; [29]
  Velvetleaf plant response rating: 100
Velvetleaf [14]; [30]
  Velvetleaf plant response rating: 60
Wheat [15]; [29]
  Wheat plant response rating: 60
Wheat [15]; [30]
  Wheat plant response rating: 0
Corn [16]; [29]
  Corn plant response rating: 70
Corn [16]; [30]
  Corn plant response rating: 40
Rice [20]
  Plant response rating, Rice: 20
sedge, umbrella [21]
  Plant response rating, Sedge, Umbrella: 75
ducksalad
  Plant response rating, Ducksalad: 75
Barnyardgrass [22]
  Plant response rating, Barnyardgrass: 15

## CCc1cc(-c2ccc(C(F)(F)F)cc2)nn1Cc1nc(C(F)(F)F)nn1C [Compound 115]
Barnyardgrass [1]; [31]
  Barnyardgrass plant response rating: 20
Barnyardgrass [1]; [28]
  Barnyardgrass plant response rating: 80
crabgrass, large [2]; [31]
  Crabgrass, Large plant response rating: 90
crabgrass, large [2]; [28]
  Crabgrass, Large plant response rating: 100
foxtail, giant [3]; [31]
  Foxtail, Giant plant response rating: 90
foxtail, giant [3]; [28]
  Foxtail, Giant plant response rating: 90
Morningglory [4]; [31]
  Morningglory plant response rating: 0
Morningglory [4]; [28]
  Morningglory plant response rating: 40
Pigweed [5]; [31]
  Pigweed plant response rating: 90
Pigweed [5]; [28]
  Pigweed plant response rating: 100
Velvetleaf [6]; [31]
  Velvetleaf plant response rating: 20
Velvetleaf [6]; [28]
  Velvetleaf plant response rating: 20
Wheat [7]; [31]
  Wheat plant response rating: 0
Wheat [7]; [28]
  Wheat plant response rating: 20
Corn [8]; [31]
  Corn plant response rating: 0
Corn [8]; [28]
  Corn plant response rating: 20
Barnyardgrass [9]; [32]
  Barnyardgrass plant response rating: 60
Barnyardgrass [9]; [30]
  Barnyardgrass plant response rating: 30
crabgrass, large [10]; [32]
  Crabgrass, Large plant response rating: 90
crabgrass, large [10]; [30]
  Crabgrass, Large plant response rating: 50
foxtail, giant [11]; [32]
  Foxtail, Giant plant response rating: 80
foxtail, giant [11]; [30]
  Foxtail, Giant plant response rating: 30
Morningglory [12]; [32]
  Morningglory plant response rating: 80
Morningglory [12]; [30]
  Morningglory plant response rating: 30
Pigweed [13]; [32]
  Pigweed plant response rating: 100
Pigweed [13]; [30]
  Pigweed plant response rating: 90
Velvetleaf [14]; [32]
  Velvetleaf plant response rating: 100
Velvetleaf [14]; [30]
  Velvetleaf plant response rating: 60
Wheat [15]; [32]
  Wheat plant response rating: 40
Wheat [15]; [30]
  Wheat plant response rating: 0
Corn [16]; [32]
  Corn plant response rating: 40
Corn [16]; [30]
  Corn plant response rating: 20
Rice [20]
  Plant response rating, Rice: 20
sedge, umbrella [21]
  Plant response rating, Sedge, Umbrella: 80
ducksalad
  Plant response rating, Ducksalad: 0
Barnyardgrass [22]
  Plant response rating, Barnyardgrass: 0
